In data set [1] the test system is two VanA VRE strains (E. faecalis BM4166, E. faecium ATCC BAA-2317). Briefly: Resistance development assay, durability (serial passaging at 0.5×MIC). In kind it is cell-based, Enterococcus faecalis, Enterococcus faecium. The note with it: 50 passages. The protocol: The lowest concentration of antibiotic (in μg/mL) capable of eliminating cell growth in the wells is the reported MIC value.
A new MIC assay was performed with the same protocol above. This process was repeated for 50 passages, and the fold increase in MIC was determined after each passage.

Data set [2] deals with VanB E. faecalis ATCC 51299. The experiment in a line: microbe, parasite or virus in culture. It counts as cell-based, Enterococcus faecalis.
In data set [3] the test system is Sensitive S. aureus ATCC 25923. The experiment in a line: In vitro antimicrobial microdilution assay (MIC). In kind it is cell-based, Staphylococcus aureus.
Data set [4] deals with MRSA S. aureus ATCC 43300. The experiment in a line: microbe, parasite or virus in culture. It counts as cell-based, Staphylococcus aureus.
The test system of data set [5] is VanA VRE E. faecalis (BM 4166). Briefly: Impact of added LTA, phosphate, POPE on antimicrobial activity (MIC). It counts as cell-based, Enterococcus faecalis. The procedure:
(§1) When NaH2PO4 or POPE was used instead of LTA, 10% brain-heart infusion broth containing 0.002% Tween®-80 with 100 μg/mL NaH2PO4 or 100 μg/mL POPE was used as the culture medium used for serial dilution. When additional G3 (H2N^+(CH2)3NHC(NH2)═NH2^+.2TFA) or Mg^2+ was used, 10% brain-heart infusion broth containing 0.002% Tween®-80 with 100 μg/mL G3 or 100 μg/mL MgCl2 and 100 μg/mL lipoteichoic acid was used as the culture medium for serial dilution of study group, 10% brain-heart infusion broth containing 0.002% Tween®-80 with 100 μg/mL G3 was used as the culture medium for serial dilution of control group.

Data set [6] deals with VanA VRE E. faecium (ATCC BAA2317). The experiment in a line: organism not typed. In kind it is cell-based, Enterococcus faecium. The procedure: as §1
The test system of data set [7] is VanA VRE E. faecalis BM 4166 and E. faecium ATCC BAA-2317. In kind it is cell-based, Enterococcus faecalis, Enterococcus faecium. The note with it: 10 μM added at 5 minutes. The protocol: The above bacterial solution was subjected to a subculture to obtain fresh mid-log phase bacterial cells (incubation time=6 hours). The bacterial suspension was diluted to a total volume of 7 mL with OD600=0.6.
After the cultured bacteria were harvested (3000 rpm, 4° C., 20 minutes), the white bacterial precipitate was washed and resuspended in 5 mM glucose and 5 mM HEPES buffer (1:1, 5.00 mL, pH=7.2).

The subject of data set [8] is VanA E. faecium (ATCC BAA-2317). Briefly: In vitro antimicrobial microdilution assay (MIC). It counts as cell-based, Enterococcus faecium. In general terms: Broth dilution looks for growth in wells or tubes with falling amounts of substance.
The subject of another data set is VanA VRE, 4 strains. Briefly: Antimicrobial activity against VanA VRE panel (4 strains), summarised in text. In kind it is cell-based, Enterococcus faecalis, Enterococcus faecium.
Data set [9] has as its system VanA E. faecalis BM 4166 or ATCC BAA-2573. The experiment in a line: microbe, parasite or virus in culture. In kind it is cell-based. The following applies: Enterococcus faecalis, ATCCBAA2573, read-out: MIC, VanA E. faecalis.
Data set [10] can be described thus: Mouse pharmacokinetics, iv. The note with it: 10 mg/kg. The procedure: Plasma was obtained by centrifugation using a microcentrifuge fit with a hematocrit rotor, and obtained plasma was immediately frozen. The use of micro-sampling blood collection reduces the total blood taken from the mouse and allows a single mouse to be used for the entire time course, reducing inter-individual variability and maintaining the health of the mouse.
Drug levels were determined by mass spectrometry using an ABSciex 5500 mass spectrometer using multiple reaction monitoring. […] All PK work was conducted in the Scripps Florida vivarium which is fully AAALAC accredited. Procedures were approved by the Scripps Florida IACUC, protocol number 15-022.

For data set [11], the system named is VanA VRE E. faecalis BM 4166 and E. faecium ATCC BAA-2317. The note with it: previously reported; C1-vancomycin even at 100 μM; cited from earlier work.
For data set [12] the following is noted: mice, earlier studies; cited from earlier work.
For data set [13] the following is noted: mice, cited from earlier work.
The test system of data set [14] is VanA E. faecalis (BM 4166). Briefly: In vitro antimicrobial microdilution assay (MIC). It counts as cell-based, Enterococcus faecalis.
Data set [15] concerns VanA E. faecalis (ATCC BAA-2573). Briefly: In vitro antimicrobial microdilution assay (MIC). In kind it is cell-based, Enterococcus faecalis.
The next data set deals with VanA E. faecium (TX2465). The experiment in a line: In vitro antimicrobial microdilution assay (MIC). In kind it is cell-based, Enterococcus faecium.
Setting [16] is: iv, 10 mg/kg, earlier study, listed as C1-CBP-vancomycin (4).

In brackets after ≈: the same amount, converted by molar mass. Where two headings read alike, the source gives them in different places.

The AUC is concentration integrated over time. A word on the Cmax: it is the maximum level reached in the sampled fluid or tissue. One may read the Vd as a proportionality between amount in the body and measured concentration, not a real space. What is called clearance is the rate of elimination divided by the concentration. What is called half-life is the time in which the quantity being followed falls by half. Read a low half-life as rapid decline.

Consider `CN(C)c1cc(NC(=O)CNC(C)(C)C)c(O)c2c1C[C@H]1C[C@H]3[C@H](N(C)C)C(O)=C(C(N)=O)C(=O)[C@@]3(O)C(O)=C1C2=O` [tigecycline], for which, in [1], the “resistance acquisition on serial passaging” value (shortened to “resistance acquisition”) is “raise resistance more rapidly and in a more pronounced manner”.

For `CN[C@H](CC(C)C)C(=O)N[C@H]1C(=O)N[C@@H](CC(N)=O)C(=O)N[C@H]2C(=O)N[C@H]3C(=O)N[C@H](C(=O)N[C@H](C(=O)NCc4ccc(NC(=N)N)cc4)c4cc(O)cc(O)c4-c4cc3ccc4O)[C@H](O)c3ccc(c(Cl)c3)Oc3cc2cc(c3OC2OC(CO)C(O)[C@H](O)C2O[C@H]2CC(C)(NCc3ccc(-c4ccc(Cl)cc4)cc3)[C@H](O)[C@H](C)O2)Oc2ccc(cc2Cl)[C@H]1O` (some centres unmarked) [Compound 19, GBn-CBP-vancomycin], the MIC was 0.04 µg/mL (≈ 0.0223 µM) in data set [2] (Enterococcus faecalis, ATCC51299, read-out: MIC, VanB E. faecalis ATCC 51299); 0.04 µg/mL (≈ 0.0223 µM) in data set [3] (Staphylococcus aureus, ATCC25923, read-out: MIC, Sensitive S. aureus ATCC 25923); 0.02 µg/mL (≈ 0.0111 µM) in data set [4] (Staphylococcus aureus, read-out: MIC, MRSA S. aureus ATCC 43300); 5 µg/mL (≈ 2.78 µM) in data set [5] (read-out: MIC, +LTA); 0.6 µg/mL (≈ 0.334 µM) in [5] (read-out: MIC, −LTA); 2.5 µg/mL (≈ 1.39 µM) in [6] (read-out: MIC, +LTA). The MIC in data set [6] (read-out: MIC, −LTA) was found to be 0.3 µg/mL (≈ 0.167 µM). For the same molecule, the “decrease of antimicrobial activity by added LTA” value in [5] (100 μg/mL LTA, both VanA VRE strains) was 8 fold. In data set [7], the “bacterial cell membrane permeabilization” value is given as “strong membrane permeabilization”.

`CN[C@H](CC(C)C)C(=O)N[C@H]1C(=O)N[C@@H](CC(N)=O)C(=O)N[C@H]2C(=O)NC3C(=O)N[C@H](C(=O)N[C@H](C(=O)NCCC[N+](C)(C)C)c4cc(O)cc(O)c4-c4cc3ccc4O)[C@H](O)c3ccc(c(Cl)c3)Oc3cc2cc(c3OC2OC(CO)C(O)[C@H](O)[C@@H]2O[C@H]2CC(C)(NCc3ccc(-c4ccc(Cl)cc4)cc3)[C@H](O)[C@H](C)O2)Oc2ccc(cc2Cl)[C@H]1O` (single isomer, unassigned) [Compound 4, C1-CBP-vancomycin]: the MIC in data set [8] (Enterococcus faecium, ATCCBAA2317, read-out: MIC, VanA E. faecium ATCC BAA-2317) was 0.5 µg/mL. Moreover, in the data set with VanA VRE, 4 strains, the “more potent than vancomycin” value was “about 1000 fold”. Also, the MIC in [9] was determined as 0.25 µg/mL. In data set [10] (female, CD-1, mouse, in vivo), this molecule gave an AUC of 48400 ng·h/mL, a Cmax of 14500 ng/mL, a Vd of 0.64 L/kg and a clearance of 2 mL/min/kg. In data set [10] (female, CD-1, mouse, in vivo), the half-life is 5.1 h and the tmax is 4.8 min. For the same molecule, the “MRTlNF—obs” value in data set [10] (mice) is given as 5.6 h. Besides, the Vd result in data set [10] (mice, this study) is “(0.64) L/kg”. In addition, in data set [11], the “bacterial cell membrane permeabilization” value is reported as “pronounced membrane permeabilization”. Besides, the MTD in data set [12] is 50 mg/kg. For the same molecule, the “terminal half-life (t1/2)” value in [13] (earlier studies) is 5 h. Further, in [13] (setting [16]), the AUC is 81100 ng·h/mL, the CL is 2 mL/min/kg, the Cmax was 14100 ng/mL and the Vd is given as 1.25 L/kg. Also, in data set [13] (setting [16]), the t1/2 is 7.0 h and the tmax is 0.50 h. In data set [13] (iv, 50 mg/kg, earlier study), the area under the curve (AUC) is 430000 ng·h/mL, the CL is 2 mL/min/kg, the peak concentration (Cmax) was 58900 ng/mL and the Vd is 1.04 L/kg. Besides, the t1/2 in [13] (iv, 50 mg/kg, earlier study) is recorded as 6.2 h.

On to `CC(=O)NC[C@H]1CN(c2ccc(N3CCOCC3)c(F)c2)C(=O)O1` [linezolid], for which, in data set [1], the “resistance acquisition” value was “raise resistance more rapidly and in a more pronounced manner”.

As for `CN[C@H](CC(C)C)C(=O)N[C@H]1C(=O)N[C@@H](CC(N)=O)C(=O)N[C@H]2C(=O)N[C@H]3C(=O)N[C@H](C(=O)N[C@H](C(=O)O)c4cc(O)c(CN[C@@H](CCCNC(=N)N)C(=O)OC)c(O)c4-c4cc3ccc4O)[C@H](O)c3ccc(c(Cl)c3)Oc3cc2cc(c3OC2OC(CO)C(O)[C@H](O)C2O[C@H]2CC(C)(N)[C@H](O)[C@H](C)O2)Oc2ccc(cc2Cl)[C@H]1O` (some centres unmarked) [Compound 27, Arg(OMe)^Ar-vancomycin], the MIC in data set [14] (Enterococcus faecalis, read-out: MIC, VanA E. faecalis BM 4166) stood at 31 µg/mL (≈ 18.8 µM); in [8] (Enterococcus faecium, ATCCBAA2317; read-out: MIC, VanA E. faecium ATCC BAA-2317), 8 µg/mL (≈ 4.85 µM); in data set [15] (Enterococcus faecalis, ATCCBAA2573, read-out: MIC, VanA E. faecalis ATCC BAA-2573), 16 µg/mL (≈ 9.7 µM); in the data set with VanA E. faecium (TX2465) (Enterococcus faecium, read-out: MIC, VanA E. faecium TX2465), 63 µg/mL (≈ 38.2 µM). Further, the “less potent compared with Arg(OMe)-vancomycin (Compound 10)” value in the data set on VanA VRE, 4 strains (resistant organisms) is at most 8 fold.

As for `CCCCCCCCCC(=O)N[C@@H](Cc1c[nH]c2ccccc12)C(=O)N[C@H](CC(N)=O)C(=O)N[C@@H](CC(=O)O)C(=O)N[C@@H]1C(=O)NCC(=O)N[C@@H](CCCN)C(=O)N[C@@H](CC(=O)O)C(=O)N[C@H](C)C(=O)N[C@@H](CC(=O)O)C(=O)NCC(=O)N[C@H](CO)C(=O)N[C@@H]([C@H](C)CC(=O)O)C(=O)N[C@@H](CC(=O)c2ccccc2N)C(=O)O[C@@H]1C` [daptomycin], in data set [1], the “resistance acquisition” value is “raise resistance more rapidly and in a more pronounced manner”.

For the molecule `CN[C@H](CC(C)C)C(=O)N[C@H]1C(=O)N[C@@H](CC(N)=O)C(=O)N[C@H]2C(=O)NC3C(=O)N[C@H](C(=O)N[C@H](C(=O)NCc4ccc(NC(=N)N)cc4)c4cc(O)cc(O)c4-c4cc3ccc4O)[C@H](O)c3ccc(c(Cl)c3)Oc3cc2cc(c3OC2OC(CO)C(O)[C@H](O)[C@@H]2O[C@H]2CC(C)(N)[C@H](O)[C@H](C)O2)Oc2ccc(cc2Cl)[C@H]1O` (some centres unmarked) [Compound 9, GBn-vancomycin], the “MIC, VanA E. faecalis BM 4166” value in data set [14] worked out at 16 µg/mL (≈ 10 µM). The “MIC, VanA E. faecium ATCC BAA-2317” value in data set [8] amounted to 4 µg/mL (≈ 2.51 µM). Also, the “MIC, VanA E. faecalis ATCC BAA-2573” value in data set [15] worked out at 4 µg/mL (≈ 2.51 µM). Further, the “MIC, VanA E. faecium TX2465” value in the data set with VanA E. faecium (TX2465) came to 8 µg/mL (≈ 5.01 µM). In data set [2], the “MIC, VanB E. faecalis ATCC 51299” value came to 8 µg/mL (≈ 5.01 µM). Also, the “MIC, Sensitive S. aureus ATCC 25923” value in [3] was found to be 0.25 µg/mL (≈ 0.157 µM). For the same molecule, in data set [4], the “MIC, MRSA S. aureus ATCC 43300” value was determined as 0.12 µg/mL (≈ 0.0752 µM). Also, the “MIC, +LTA” value in [5] (E. faecalis BM 4166, LTA 100 μg/mL) was 16 µg/mL (≈ 10 µM); in data set [6] (E. faecium ATCC BAA-2317, LTA 100 μg/mL), 4 µg/mL (≈ 2.51 µM). Further, the “MIC, −LTA” value in data set [5] (E. faecalis BM 4166, no LTA) was 16 µg/mL (≈ 10 µM); in data set [6] (E. faecium ATCC BAA-2317, no LTA (0 μg/mL)) it was 4 µg/mL (≈ 2.51 µM).

Source of the values: US20230146239A1 (THE SCRIPPS RESEARCH INSTITUTE, priority 2020, published 2023).
